These results are taken from patent US11685732B2, “MYST family histone acetyltransferase inhibitors” (Epizyme, Inc., priority 2017, dated 2023).

In one test the target is KAT-6A (Homo sapiens (Human), UniProt Q92794). As to the kind of experiment: KAT-6A biochemical inhibition assay (SAMDI mass spectrometry). In short, it runs like this:
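IC50 values came from SAMDI time-of-flight mass spectrometry after formic acid quench (0.5% final). Acetylation ran 90 min at 25 °C with 1 μM acetyl coenzyme A and 1 μM peptide substrate, following compound pre-incubation with 12.5 nM KAT-6A in Tris buffer pH 8.0 containing DTT, 2% DMSO final.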

The target of the next test is KAT-7 (Homo sapiens (Human), UniProt O95251). As to the kind of experiment: KAT-7 biochemical inhibition assay (SAMDI mass spectrometry). In short, it runs like this:
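Read-out was SAMDI time-of-flight MS of formic acid-quenched reactions (0.5% final). Compound dilutions (2% DMSO final) were pre-incubated with 6 nM KAT-7 in 50 mM Tris pH 8.0 with 1 mM DTT, then given 1 μM peptide substrate and 2 μM acetyl-CoA for 120 min at 25 °C. IC50 values were derived.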

For a further test, the target named is KAT-5 (Homo sapiens (Human), UniProt Q92993). The test is described as follows: KAT-5 biochemical inhibition assay (SAMDI mass spectrometry). In short, it runs like this: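 Acetylation of 1 μM peptide by 9 nM enzyme with 0.5 μM acetyl-CoA (final) was run 90 min at 25° C in Tris pH 8.0 buffer with DTT, after compound preincubation at 2% DMSO. Formic acid stopped the reaction, and product was quantified by SAMDI mass spectrometry to derive IC50.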

A further test concerns the target KAT-8 (Homo sapiens (Human), UniProt Q9H7Z6). The test is described as follows: KAT-8 biochemical inhibition assay (SAMDI mass spectrometry). In short, it runs like this:
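Acetylation of 1 μM peptide substrate with 5 μM acetyl-CoA by 12.5 nM enzyme, compound pre-incubated, 2% DMSO, Tris pH 8.0 buffer with DTT, 25 °C for 90 min. Quench with 0.5% formic acid; product read by SAMDI mass spectrometry to give IC50.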

Chain of KAT-7 (O95251 other isoform, or with tags, fused parts or gaps): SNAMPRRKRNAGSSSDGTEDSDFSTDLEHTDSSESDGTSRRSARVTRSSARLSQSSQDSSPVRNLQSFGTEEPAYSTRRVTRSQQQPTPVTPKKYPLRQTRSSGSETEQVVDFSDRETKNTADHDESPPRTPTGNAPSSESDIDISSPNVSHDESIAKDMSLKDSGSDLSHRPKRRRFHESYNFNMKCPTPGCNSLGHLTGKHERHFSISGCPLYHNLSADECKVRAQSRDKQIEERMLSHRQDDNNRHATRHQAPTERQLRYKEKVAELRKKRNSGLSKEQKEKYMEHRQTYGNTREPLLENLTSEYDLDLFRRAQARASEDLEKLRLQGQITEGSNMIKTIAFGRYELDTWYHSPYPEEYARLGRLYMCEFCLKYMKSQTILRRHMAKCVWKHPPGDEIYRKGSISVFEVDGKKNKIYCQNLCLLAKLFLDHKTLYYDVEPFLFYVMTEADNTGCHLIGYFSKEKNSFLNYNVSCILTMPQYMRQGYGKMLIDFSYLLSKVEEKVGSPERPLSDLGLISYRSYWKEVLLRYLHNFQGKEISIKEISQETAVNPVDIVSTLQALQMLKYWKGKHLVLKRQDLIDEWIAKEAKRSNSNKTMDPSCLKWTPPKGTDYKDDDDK
Chain of KAT-8 (Q9H7Z6 other isoform, or with tags, fused parts or gaps): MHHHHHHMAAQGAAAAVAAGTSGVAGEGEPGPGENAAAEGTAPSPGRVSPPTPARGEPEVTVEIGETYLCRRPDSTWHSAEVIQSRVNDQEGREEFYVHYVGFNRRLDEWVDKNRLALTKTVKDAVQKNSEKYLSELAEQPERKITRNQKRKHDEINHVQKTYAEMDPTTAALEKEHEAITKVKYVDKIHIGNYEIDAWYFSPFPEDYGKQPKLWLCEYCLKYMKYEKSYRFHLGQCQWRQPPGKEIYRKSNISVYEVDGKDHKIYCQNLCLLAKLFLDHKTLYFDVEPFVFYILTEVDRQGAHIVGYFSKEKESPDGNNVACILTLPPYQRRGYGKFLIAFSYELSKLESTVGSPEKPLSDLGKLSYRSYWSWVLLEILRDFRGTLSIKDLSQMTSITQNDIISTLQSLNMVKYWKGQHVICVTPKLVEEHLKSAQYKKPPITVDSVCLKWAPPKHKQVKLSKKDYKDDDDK
Chain of KAT-6A (Q92794 other isoform, or with tags, fused parts or gaps): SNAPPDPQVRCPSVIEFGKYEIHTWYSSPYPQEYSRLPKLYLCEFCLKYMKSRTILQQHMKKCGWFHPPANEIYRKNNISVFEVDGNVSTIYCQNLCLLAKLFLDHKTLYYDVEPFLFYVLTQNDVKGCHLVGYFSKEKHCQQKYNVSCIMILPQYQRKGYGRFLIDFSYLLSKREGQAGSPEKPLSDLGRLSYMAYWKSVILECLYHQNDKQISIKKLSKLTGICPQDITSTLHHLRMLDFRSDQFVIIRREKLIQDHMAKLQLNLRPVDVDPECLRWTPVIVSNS
Chain of KAT-5 (Q92993 other isoform, or with tags, fused parts or gaps): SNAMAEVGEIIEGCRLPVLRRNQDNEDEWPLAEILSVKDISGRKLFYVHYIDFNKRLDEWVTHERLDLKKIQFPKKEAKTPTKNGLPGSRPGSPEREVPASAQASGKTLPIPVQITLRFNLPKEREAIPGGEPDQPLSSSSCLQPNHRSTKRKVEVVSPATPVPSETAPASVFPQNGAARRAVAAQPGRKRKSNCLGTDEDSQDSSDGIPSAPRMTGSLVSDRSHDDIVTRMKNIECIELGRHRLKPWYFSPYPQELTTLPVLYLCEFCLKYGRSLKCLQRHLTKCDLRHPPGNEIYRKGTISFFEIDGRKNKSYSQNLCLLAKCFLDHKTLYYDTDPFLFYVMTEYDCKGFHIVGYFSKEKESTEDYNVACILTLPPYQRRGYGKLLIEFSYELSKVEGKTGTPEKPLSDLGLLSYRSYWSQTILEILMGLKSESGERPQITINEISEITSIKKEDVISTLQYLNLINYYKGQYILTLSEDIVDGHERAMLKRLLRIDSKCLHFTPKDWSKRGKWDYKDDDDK

`Cn1cnc(-c2cc(Cl)c(F)c(C(=O)NNS(=O)(=O)N3CCOCC3)c2)c1` [Compound I-108]: the IC50 (in general, the concentration at which inhibition is half-maximal) is 10 to 50 µM against KAT-6A, < 10 µM against KAT-7, 10 to 50 µM against KAT-5 and 10 to 50 µM on KAT-8.

As to `CCNC(=O)N[C@H]1CC[C@H](CS(=O)(=O)NNC(=O)c2cc(-c3cn(C)cn3)cc(Cl)c2F)CC1` [Compound I-109], the IC50 was < 10 µM on KAT-6A, < 10 µM on KAT-7, < 10 µM on KAT-5 and 10 to 50 µM at KAT-8.

For the compound `Cn1cnc(-c2cc(Cl)c(F)c(C(=O)NNS(=O)(=O)c3ccccc3)c2)c1` [Compound I-110], the IC50 is < 10 µM against KAT-6A, < 10 µM against KAT-7, < 10 µM at KAT-5 and 10 to 50 µM at KAT-8.

Consider `Cn1cnc(-c2cc(Cl)c(F)c(C(=O)NNS(=O)(=O)Cc3ccccc3)c2)c1` [Compound I-111], for which the IC50 on KAT-6A is < 10 µM; against KAT-7, < 10 µM; at KAT-5 it was < 10 µM; against KAT-8, 10 to 50 µM.

For `CCNC(=O)N[C@H]1C[C@H](CS(=O)(=O)NNC(=O)c2cc(-c3cn(C)cn3)cc(Cl)c2F)C1` [Compound I-112], the IC50 was 10 to 50 µM against KAT-6A, < 10 µM against KAT-7, < 10 µM on KAT-5 and 10 to 50 µM against KAT-8.

On to `Cn1cnc(-c2cc(Cl)c(F)c(C(=O)NNS(=O)(=O)C[C@H]3C[C@@H](N)C3)c2)c1` [Compound I-113], for which the IC50 at KAT-6A is 10 to 50 µM; at KAT-7, < 10 µM; at KAT-5, 10 to 50 µM; against KAT-8, 10 to 50 µM.

Regarding `Cn1cnc(-c2cc(Cl)c(F)c(C(=O)NNS(=O)(=O)C[C@H]3C[C@@H](NC(=O)OC(C)(C)C)C3)c2)c1` [Compound I-114], the IC50 at KAT-6A is < 10 µM; at KAT-7 it was < 10 µM; against KAT-5, < 10 µM; on KAT-8 it was 10 to 50 µM.

Regarding `Cn1cnc(-c2cc(Cl)c(F)c(C(=O)NNS(=O)(=O)CC3CCCC(NC(N)=O)C3)c2)c1` (stereo not drawn) [Compound I-115], the IC50 on KAT-6A is < 10 µM; against KAT-7, < 10 µM; at KAT-5 it was < 10 µM; against KAT-8, 10 to 50 µM.

Turning to `CC(=O)N[C@H]1C[C@@H](CS(=O)(=O)NNC(=O)c2cc(-c3cn(C)cn3)cc(Cl)c2F)C1` [Compound I-116], the IC50 is < 10 µM at KAT-6A, < 10 µM against KAT-7, < 10 µM at KAT-5 and 10 to 50 µM on KAT-8.

Turning to `Cn1cnc(-c2cc(Cl)c(F)c(C(=O)NNS(=O)(=O)C[C@@H]3CCN(C(=O)OC(C)(C)C)C3)c2)c1` [Compound I-117], the IC50 against KAT-6A is < 10 µM; at KAT-7, < 10 µM; at KAT-5, < 10 µM; at KAT-8, 10 to 50 µM.

Consider `CNC(=O)NC1CCCC(CS(=O)(=O)NNC(=O)c2cc(-c3cn(C)cn3)cc(Cl)c2F)C1` (stereo not drawn) [Compound I-118], for which the IC50 at KAT-6A is < 10 µM; at KAT-7, < 10 µM; on KAT-5, < 10 µM; at KAT-8 it was 10 to 50 µM.

As to `COCCc1nc(-c2cc(Cl)c(F)c(C(=O)NNS(=O)(=O)C3CCOCC3)c2)cn1C` [Compound I-119], the 50% inhibitory concentration (IC50) on KAT-6A, against KAT-7, at KAT-5 and against KAT-8 was 10 to 50 µM in each case.

Regarding `Cn1cnc(-c2cc(Cl)c(F)c(C(=O)NNS(=O)(=O)C[C@@H]3CCNC3)c2)c1` [Compound I-120], the IC50 at KAT-6A is 10 to 50 µM; on KAT-7, < 10 µM; at KAT-5 it was 10 to 50 µM; on KAT-8, 10 to 50 µM.

For the compound `Cn1cnc(-c2cc(Cl)c(F)c(C(=O)NNS(=O)(=O)C[C@H]3CCNC3)c2)c1` [Compound I-121], the IC50 is 10 to 50 µM at KAT-6A, < 10 µM against KAT-7, 10 to 50 µM on KAT-5 and 10 to 50 µM against KAT-8.

In the case of `Cn1cnc(-c2cc(Cl)c(F)c(C(=O)NNS(=O)(=O)C[C@H]3CCN(C(=O)OC(C)(C)C)C3)c2)c1` [Compound I-122], the half-inhibitory concentration (IC50) against KAT-6A was 10 to 50 µM; against KAT-7 it was < 10 µM; against KAT-5 it was 10 to 50 µM; against KAT-8, 10 to 50 µM.

For `Cn1cnc(-c2cc(Cl)c(F)c(C(=O)NNS(=O)(=O)C[C@H]3C[C@H](N)C3)c2)c1` [Compound I-123], the IC50 against KAT-6A was 10 to 50 µM; on KAT-7, < 10 µM; against KAT-5 it was 10 to 50 µM; against KAT-8 it was 10 to 50 µM.

For the compound `Cn1cnc(-c2cc(Cl)c(F)c(C(=O)NNS(=O)(=O)C[C@H]3C[C@H](NC(=O)OC(C)(C)C)C3)c2)c1` [Compound I-124], the IC50 at KAT-6A is < 10 µM; against KAT-7, < 10 µM; against KAT-5, < 10 µM; against KAT-8 it was 10 to 50 µM.

As for `CC(=O)N[C@H]1C[C@H](CS(=O)(=O)NNC(=O)c2cc(-c3cn(C)cn3)cc(Cl)c2F)C1` [Compound I-125], the IC50 against KAT-6A is 10 to 50 µM; at KAT-7 it was < 10 µM; against KAT-5 it was 10 to 50 µM; at KAT-8, 10 to 50 µM.

For `CCn1cnc(-c2cc(C)c(F)c(C(=O)NNS(=O)(=O)C3CCCCC3)c2)c1` [Compound I-126], the IC50 against KAT-6A was 10 to 50 µM; on KAT-7, < 10 µM; against KAT-5, < 10 µM; against KAT-8 it was > 100 µM.

With `Cc1cc(-c2cn(C)cn2)cc(C(=O)NNS(=O)(=O)C2CCCCC2)c1F` [Compound I-127], the IC50 against KAT-6A is 10 to 50 µM; on KAT-7, < 10 µM; on KAT-5, < 10 µM; against KAT-8, > 100 µM.

For the compound `Cc1cc(-c2cn(C)cn2)cc(C(=O)NNS(=O)(=O)Cc2ccccc2)c1F` [Compound I-128], the IC50 on KAT-6A is 10 to 50 µM; against KAT-7, < 10 µM; on KAT-5 it was 10 to 50 µM; against KAT-8, > 100 µM.

As for `Cc1cc(-c2cn(C)cn2)cc(C(=O)NNS(=O)(=O)CC2CCCCC2)c1F` [Compound I-129], the IC50 is < 10 µM at KAT-6A, < 10 µM at KAT-7, < 10 µM against KAT-5 and > 100 µM against KAT-8.

Consider `Cc1cc(-c2cn(C)cn2)cc(C(=O)NNS(=O)(=O)CC2CCOCC2)c1F` [Compound I-130], for which the IC50 is 10 to 50 µM at KAT-6A, < 10 µM against KAT-7, < 10 µM against KAT-5 and > 100 µM at KAT-8.

`Cc1cc(-c2cn(C)cn2)cc(C(=O)NNS(=O)(=O)C2CCOCC2)c1F` [Compound I-131]: the IC50 is 10 to 50 µM at KAT-6A, < 10 µM against KAT-7, 10 to 50 µM on KAT-5 and > 100 µM against KAT-8.

As to `Cc1cc(-c2cn(C)cn2)cc(C(=O)NNS(=O)(=O)CC2CCCN(C(=O)OC(C)(C)C)C2)c1F` (stereo not drawn) [Compound I-132], the IC50 is < 10 µM on KAT-6A, < 10 µM at KAT-7, < 10 µM at KAT-5 and > 100 µM against KAT-8.

For `Cc1cc(-c2cn(C)cn2)cc(C(=O)NNS(=O)(=O)CC2CCCNC2)c1F` (stereo not drawn) [Compound I-133], the IC50 against KAT-6A was > 100 µM; at KAT-7 it was < 10 µM; against KAT-5, > 100 µM; at KAT-8 it was > 100 µM.

With `COCCn1cnc(-c2cc(C)c(F)c(C(=O)NNS(=O)(=O)C3CCCCC3)c2)c1` [Compound I-134], the IC50 at KAT-6A is > 100 µM; against KAT-7, < 10 µM; against KAT-5 it was 10 to 50 µM; on KAT-8, > 100 µM.
